Data taken from ChEMBL document CHEMBL3885861, “Open TG-GATES”.

Organism: Rattus norvegicus
Assay: Open TG-GATES - Regimen: Daily Repeat
Type: toxicity, organism-based, Sprague-Dawley
Design: regimen Daily Repeat, gender Male, age 6 weeks
Conditions: in vivo, po, 0 mg/kg, route gavage, dose level Control; for APTT / Bas / Eos / Fbg / Hb / Ht / Lym / MCH / MCHC / MCV / Mono / Neu / PT / Plat / RBC / Ret / WBC: tissue Blood; for KIDNEY_L / KIDNEY_R / KIDNEY_TOTAL: tissue Kidney; for LIVER: tissue Liver; for ALP / ALT / AST / BUN / CRE / Ca / DBIL / GLC / IP / K / LDH / Na / PL / RALB / TBIL / TC / TG / TP / gamma-GTP: tissue Plasma

`CSc1ccc2c(c1)N(CCC1CCCCN1C)c1ccccc1S2` (stereo not drawn) [THIORIDAZINE] showed a TERMINAL_BW (72 h, time 3 day) of 237.9 g, an APTT (72 h, time 3 day) of 16.6 s and a Bas (72 h, time 3 day) of 0%. It also gave an Eos (72 h, time 3 day) of 1%, a Fbg (72 h, time 3 day) of 215.2 mg/dL and a Hb (72 h, time 3 day) of 13.7 g/dL. It also gave a Ht (72 h, time 3 day) of 40.7%, a Lym (72 h, time 3 day) of 78% and an MCH (72 h, time 3 day) of 21.7 pg. For the same compound, the MCHC (72 h, time 3 day) was 33.7%, the MCV (72 h, time 3 day) was 64.4 fL and the Mono (72 h, time 3 day) was 8.4%. It also gave a Neu (72 h, time 3 day) of 13%, a PT (72 h, time 3 day) of 11.9 s and a Plat (72 h, time 3 day) of 107.7 x10_4/uL. The RBC (72 h, time 3 day) was 631.6 x10_4/ul, the Ret (72 h, time 3 day) was 8.1% and the WBC (72 h, time 3 day) was 120 x10_2/uL. For the same compound, the KIDNEY_L (72 h, time 3 day) was 1.1 g, the KIDNEY_R (72 h, time 3 day) was 1.1 g and the KIDNEY_TOTAL (72 h, time 3 day) was 2.2 g. The LIVER (72 h, time 3 day) was 12 g, the ALP (72 h, time 3 day) was 821.6 IU/L and the ALT (72 h, time 3 day) was 37 IU/L. It also gave an AST (72 h, time 3 day) of 63.8 IU/L, a BUN (72 h, time 3 day) of 16.6 mg/dL and a CRE (72 h, time 3 day) of 0.5 mg/dL. For the same compound, the Ca (72 h, time 3 day) was 11.1 mg/dL, the DBIL (72 h, time 3 day) was 0.034 mg/dL and the GLC (72 h, time 3 day) was 193.4 mg/dL. The IP (72 h, time 3 day) was 9.3 mg/dL, the K (72 h, time 3 day) was 5.2 meq/L and the LDH (72 h, time 3 day) was 95 IU/L. For the same compound, the Na (72 h, time 3 day) was 139.4 meq/L, the PL (72 h, time 3 day) was 159.6 mg/dL and the RALB (72 h, time 3 day) was 4.2 g/dL. For the same compound, the TBIL (72 h, time 3 day) was 0.4 mg/dL, the TC (72 h, time 3 day) was 87 mg/dL and the TG (72 h, time 3 day) was 88.2 mg/dL. The TP (72 h, time 3 day) was 6 g/dL, the gamma-GTP (72 h, time 3 day) was 1.2 IU/L and the TERMINAL_BW ([…], time 7 day) was 272.6 g. It also gave a TERMINAL_BW ([…], time 14 day) of 326.5 g, a TERMINAL_BW ([…], time 28 day) of 411.3 g and an APTT ([…], time 7 day) of 15.1 s. The Bas ([…], time 7 day) was 0%, the Eos ([…], time 7 day) was 0.6% and the Fbg ([…], time 7 day) was 241.2 mg/dL. The Hb ([…], time 7 day) was 13.9 g/dL, the Ht ([…], time 7 day) was 41.7% and the Lym ([…], time 7 day) was 83%. The MCH ([…], time 7 day) was 21.7 pg, the MCHC ([…], time 7 day) was 33.3% and the MCV ([…], time 7 day) was 65 fL. The Mono ([…], time 7 day) was 6.2%, the Neu ([…], time 7 day) was 10.2% and the PT ([…], time 7 day) was 11.6 s. It also gave a Plat ([…], time 7 day) of 100.8 x10_4/uL, an RBC ([…], time 7 day) of 642.4 x10_4/ul and a Ret ([…], time 7 day) of 5.4%. The WBC ([…], time 7 day) was 141.4 x10_2/uL, the APTT ([…], time 14 day) was 16.8 s and the Bas ([…], time 14 day) was 0%. It also gave an Eos ([…], time 14 day) of 0.6%, a Fbg ([…], time 14 day) of 243.4 mg/dL and a Hb ([…], time 14 day) of 14.4 g/dL. For the same compound, the Ht ([…], time 14 day) was 42.9%, the Lym ([…], time 14 day) was 78.4% and the MCH ([…], time 14 day) was 20.6 pg. For the same compound, the MCHC ([…], time 14 day) was 33.5%, the MCV ([…], time 14 day) was 61.5 fL and the Mono ([…], time 14 day) was 6.4%. The Neu ([…], time 14 day) was 14.6%, the PT ([…], time 14 day) was 11.5 s and the Plat ([…], time 14 day) was 106.3 x10_4/uL. For the same compound, the RBC ([…], time 14 day) was 697.6 x10_4/ul, the Ret ([…], time 14 day) was 4.5% and the WBC ([…], time 14 day) was 129.7 x10_2/uL. For the same compound, the APTT ([…], time 28 day) was 18.1 s, the Bas ([…], time 28 day) was 0% and the Eos ([…], time 28 day) was 0.6%. For the same compound, the Fbg ([…], time 28 day) was 234.6 mg/dL, the Hb ([…], time 28 day) was 15.2 g/dL and the Ht ([…], time 28 day) was 45.5%. For the same compound, the Lym ([…], time 28 day) was 83.4%, the MCH ([…], time 28 day) was 19.8 pg and the MCHC ([…], time 28 day) was 33.4%. The MCV ([…], time 28 day) was 59.2 fL, the Mono ([…], time 28 day) was 7.6% and the Neu ([…], time 28 day) was 8.2%. It also gave a PT ([…], time 28 day) of 11.8 s, a Plat ([…], time 28 day) of 98 x10_4/uL and an RBC ([…], time 28 day) of 769.4 x10_4/ul. It also gave a Ret ([…], time 28 day) of 3%, a WBC ([…], time 28 day) of 131.4 x10_2/uL and a KIDNEY_L ([…], time 7 day) of 1.2 g. It also gave a KIDNEY_R ([…], time 7 day) of 1.2 g, a KIDNEY_TOTAL ([…], time 7 day) of 2.4 g and a KIDNEY_L ([…], time 14 day) of 1.3 g. For the same compound, the KIDNEY_R ([…], time 14 day) was 1.3 g, the KIDNEY_TOTAL ([…], time 14 day) was 2.6 g and the KIDNEY_L ([…], time 28 day) was 1.5 g. For the same compound, the KIDNEY_R ([…], time 28 day) was 1.5 g, the KIDNEY_TOTAL ([…], time 28 day) was 2.9 g and the LIVER ([…], time 7 day) was 13.4 g. For the same compound, the LIVER ([…], time 14 day) was 15.6 g, the LIVER ([…], time 28 day) was 18.7 g and the ALP ([…], time 7 day) was 973 IU/L. For the same compound, the ALT ([…], time 7 day) was 32.4 IU/L, the AST ([…], time 7 day) was 65 IU/L and the BUN ([…], time 7 day) was 18.2 mg/dL. For the same compound, the CRE ([…], time 7 day) was 0.5 mg/dL, the Ca ([…], time 7 day) was 11.4 mg/dL and the DBIL ([…], time 7 day) was 0.016 mg/dL. It also gave a GLC ([…], time 7 day) of 181.2 mg/dL, an IP ([…], time 7 day) of 9 mg/dL and a K ([…], time 7 day) of 5.2 meq/L. For the same compound, the LDH ([…], time 7 day) was 149.4 IU/L, the Na ([…], time 7 day) was 141.6 meq/L and the PL ([…], time 7 day) was 175 mg/dL. The RALB ([…], time 7 day) was 4 g/dL, the TBIL ([…], time 7 day) was 0.3 mg/dL and the TC ([…], time 7 day) was 89.2 mg/dL. It also gave a TG ([…], time 7 day) of 140.8 mg/dL, a TP ([…], time 7 day) of 5.9 g/dL and a gamma-GTP ([…], time 7 day) of 1.4 IU/L. For the same compound, the ALP ([…], time 14 day) was 864.8 IU/L, the ALT ([…], time 14 day) was 33.4 IU/L and the AST ([…], time 14 day) was 57.2 IU/L. The BUN ([…], time 14 day) was 19 mg/dL, the CRE ([…], time 14 day) was 0.5 mg/dL and the Ca ([…], time 14 day) was 10.8 mg/dL. For the same compound, the DBIL ([…], time 14 day) was 0.014 mg/dL, the GLC ([…], time 14 day) was 189.8 mg/dL and the IP ([…], time 14 day) was 8 mg/dL. It also gave a K ([…], time 14 day) of 4.9 meq/L, an LDH ([…], time 14 day) of 96.8 IU/L and a Na ([…], time 14 day) of 139.8 meq/L. For the same compound, the PL ([…], time 14 day) was 163.6 mg/dL, the RALB ([…], time 14 day) was 4.1 g/dL and the TBIL ([…], time 14 day) was 0.3 mg/dL. The TC ([…], time 14 day) was 71.8 mg/dL, the TG ([…], time 14 day) was 200.4 mg/dL and the TP ([…], time 14 day) was 6.3 g/dL. It also gave a gamma-GTP ([…], time 14 day) of 0.8 IU/L, an ALP ([…], time 28 day) of 618.8 IU/L and an ALT ([…], time 28 day) of 34.6 IU/L. The AST ([…], time 28 day) was 62 IU/L, the BUN ([…], time 28 day) was 20.4 mg/dL and the CRE ([…], time 28 day) was 0.6 mg/dL. It also gave a Ca ([…], time 28 day) of 10.7 mg/dL, a DBIL ([…], time 28 day) of 0 mg/dL and a GLC ([…], time 28 day) of 191.4 mg/dL. It also gave an IP ([…], time 28 day) of 6.7 mg/dL, a K ([…], time 28 day) of 4.5 meq/L and an LDH ([…], time 28 day) of 135.2 IU/L. For the same compound, the Na ([…], time 28 day) was 139.4 meq/L, the PL ([…], time 28 day) was 170.8 mg/dL and the RALB ([…], time 28 day) was 4.1 g/dL. The TBIL ([…], time 28 day) was 0.3 mg/dL, the TC ([…], time 28 day) was 87.4 mg/dL and the TG ([…], time 28 day) was 186.2 mg/dL. For the same compound, the TP ([…], time 28 day) was 6.5 g/dL.
